The source made the active and inactive calls. The calls are words filed in the database; no cut-off is given here.
Assays:
Format in all cases: functional
[1] = tested on: Colletotrichum falcatum; assay: Antifungal activity against Glomerella tucumanensis at 300 ug/ml after 48 hr; settings: read-out: IZ
[2] = tested on: Proteus vulgaris; assay: Antibacterial activity against Proteus vulgaris at 900 ug/ml after overnight incubation; settings: read-out: IZ
[3] = tested on: Streptococcus pyogenes; assay: Antibacterial activity against Streptococcus pyogenes at 900 ug/ml after overnight incubation; settings: read-out: IZ
[4] = tested on: Staphylococcus aureus; assay: Antibacterial activity against Staphylococcus aureus at 600 ug/ml after overnight incubation; settings: for zone of inhibition at 600 µg/mL: read-out: IZ
[5] = tested on: Exserohilum rostratum; assay: Antifungal activity against Setosphaeria rostrata at 300 ug/ml after 48 hr; settings: read-out: IZ
[6] = tested on: Priestia megaterium; assay: Antibacterial activity against Bacillus megaterium at 600 ug/ml after overnight incubation; settings: for zone of inhibition at 600 µg/mL: read-out: IZ
[7] = tested on: Escherichia coli; assay: Antibacterial activity against Escherichia coli at 600 ug/ml after overnight incubation; settings: read-out: IZ
[8] = tested on: Colletotrichum falcatum; assay: Antifungal activity against Glomerella tucumanensis at 900 ug/ml after 48 hr; settings: read-out: IZ
[9] = tested on: Bacillus subtilis; assay: Antibacterial activity against Bacillus subtilis at 900 ug/ml after overnight incubation; settings: read-out: IZ
[10] = tested on: Enterococcus faecalis; assay: Antibacterial activity against Enterococcus faecalis at 600 ug/ml after overnight incubation; settings: read-out: IZ
[11] = tested on: Fusarium oxysporum; assay: Antifungal activity against Fusarium oxysporum at 600 ug/ml after 48 hr; settings: read-out: IZ
[12] = tested on: Fusarium oxysporum; assay: Antifungal activity against Fusarium oxysporum at 900 ug/ml after 48 hr; settings: read-out: IZ
[13] = tested on: Fusarium oxysporum; assay: Antifungal activity against Fusarium oxysporum at 300 ug/ml after 48 hr; settings: read-out: IZ
[14] = tested on: Proteus vulgaris; assay: Antibacterial activity against Proteus vulgaris at 600 ug/ml after overnight incubation; settings: read-out: IZ
[15] = tested on: Colletotrichum falcatum; assay: Antifungal activity against Glomerella tucumanensis at 600 ug/ml after 48 hr; settings: read-out: IZ
[16] = tested on: Candida albicans; assay: Antifungal activity against Candida albicans at 900 ug/ml after 48 hr; settings: read-out: IZ
[17] = tested on: Bacillus pumilus; assay: Antibacterial activity against Bacillus pumilus at 900 ug/ml after overnight incubation; settings: read-out: IZ
[18] = tested on: Bacillus pumilus; assay: Antibacterial activity against Bacillus pumilus at 600 ug/ml after overnight incubation; settings: read-out: IZ
[19] = tested on: Candida albicans; assay: Antifungal activity against Candida albicans at 1200 ug/ml after 48 hr; settings: read-out: IZ
[20] = tested on: Streptococcus pyogenes; assay: Antibacterial activity against Streptococcus pyogenes at 600 ug/ml after overnight incubation; settings: read-out: IZ
[21] = tested on: Staphylococcus aureus; assay: Antibacterial activity against Staphylococcus aureus at 900 ug/ml after overnight incubation; settings: for zone of inhibition at 900 µg/mL: read-out: IZ
[22] = tested on: Bacillus subtilis; assay: Antibacterial activity against Bacillus subtilis at 600 ug/ml after overnight incubation; settings: read-out: IZ
[23] = tested on: Klebsiella pneumoniae; assay: Antibacterial activity against Klebsiella pneumoniae at 600 ug/ml after overnight incubation; settings: read-out: IZ
[24] = tested on: Enterococcus faecalis; assay: Antibacterial activity against Enterococcus faecalis at 900 ug/ml after overnight incubation; settings: read-out: IZ
[25] = tested on: Klebsiella pneumoniae; assay: Antibacterial activity against Klebsiella pneumoniae at 900 ug/ml after overnight incubation; settings: read-out: IZ
[26] = tested on: Priestia megaterium; assay: Antibacterial activity against Bacillus megaterium at 900 ug/ml after overnight incubation; settings: for zone of inhibition at 900 µg/mL: read-out: IZ
[27] = tested on: Candida albicans; assay: Antifungal activity against Candida albicans at 600 ug/ml after 48 hr; settings: read-out: IZ
[28] = tested on: Candida albicans; assay: Antifungal activity against Candida albicans at 300 ug/ml after 48 hr; settings: read-out: IZ
[29] = tested on: Exserohilum rostratum; assay: Antifungal activity against Setosphaeria rostrata at 1200 ug/ml after 48 hr; settings: read-out: IZ
[30] = tested on: Klebsiella aerogenes; assay: Antibacterial activity against Enterobacter aerogenes at 900 ug/ml after overnight incubation; settings: read-out: IZ
[31] = tested on: Exserohilum rostratum; assay: Antifungal activity against Setosphaeria rostrata at 600 ug/ml after 48 hr; settings: read-out: IZ
[32] = tested on: Exserohilum rostratum; assay: Antifungal activity against Setosphaeria rostrata at 900 ug/ml after 48 hr; settings: read-out: IZ
[33] = tested on: Escherichia coli; assay: Antibacterial activity against Escherichia coli at 900 ug/ml after overnight incubation; settings: read-out: IZ
[34] = tested on: Klebsiella aerogenes; assay: Antibacterial activity against Enterobacter aerogenes at 600 ug/ml after overnight incubation; settings: read-out: IZ
[35] = tested on: Colletotrichum falcatum; assay: Antifungal activity against Glomerella tucumanensis at 1200 ug/ml after 48 hr; settings: read-out: IZ
[36] = tested on: Fusarium oxysporum; assay: Antifungal activity against Fusarium oxysporum at 1200 ug/ml after 48 hr; settings: read-out: IZ

Compound	zone of inhibition at 300 µg/mL [1] [mm]	zone of inhibition at 900 µg/mL [2] [mm]	zone of inhibition at 900 µg/mL [3] [mm]	zone of inhibition at 300 µg/mL [5] [mm]	zone of inhibition at 600 µg/mL [7] [mm]	zone of inhibition at 900 µg/mL [8] [mm]	zone of inhibition at 900 µg/mL [9] [mm]	zone of inhibition at 600 µg/mL [10] [mm]	zone of inhibition at 600 µg/mL [11] [mm]	zone of inhibition at 900 µg/mL [12] [mm]	zone of inhibition at 300 µg/mL [13] [mm]	zone of inhibition at 600 µg/mL [14] [mm]	zone of inhibition at 600 µg/mL [15] [mm]	zone of inhibition at 900 µg/mL [16] [mm]	zone of inhibition at 900 µg/mL [17] [mm]	zone of inhibition at 600 µg/mL [18] [mm]	zone of inhibition at 1200 µg/mL [19] [mm]	zone of inhibition at 600 µg/mL [20] [mm]	zone of inhibition at 600 µg/mL [22] [mm]	zone of inhibition at 600 µg/mL [23] [mm]	further results
c1ccc(-c2nnc(CN3CCC(n4nc5ccccc5n4)CC3)o2)cc1	3.56	7.5	8.25	3.15	2.24	13.2	5.45	4.25	4.85	10.2	2.25	3.8	7.26	13.2	8.65	4.25	24.2	4.01	2.65	3.35	zone of inhibition at 600 µg/mL [4]: 3.26 mm; zone of inhibition at 600 µg/mL [6]: 5.82 mm; zone of inhibition at 900 µg/mL [21]: 8.25 mm; zone of inhibition at 900 µg/mL [24]: 9.25 mm; zone of inhibition at 900 µg/mL [25]: 6.56 mm; zone of inhibition at 900 µg/mL [26]: 11.4 mm; zone of inhibition at 600 µg/mL [27]: 6.05 mm; zone of inhibition at 300 µg/mL [28]: 3.12 mm; zone of inhibition at 1200 µg/mL [29]: 24 mm; zone of inhibition at 900 µg/mL [30]: 11.2 mm; zone of inhibition at 600 µg/mL [31]: 6.25 mm; zone of inhibition at 900 µg/mL [32]: 11.8 mm; zone of inhibition at 900 µg/mL [33]: 4.85 mm; zone of inhibition at 600 µg/mL [34]: 5.82 mm; zone of inhibition at 1200 µg/mL [35]: 27.9 mm; zone of inhibition at 1200 µg/mL [36]: 21.3 mm
Fc1cccc(-c2nnc(CN3CCC(n4nc5ccccc5n4)CC3)o2)c1F	4.82	8.74	3.15	3.81	3.25	17.8	9.56	2.35	7.01	13.2	4.21	4.56	9.25	9.86	7.24	3.35	17.2	1.13	4.8	6.23	zone of inhibition at 600 µg/mL [4]: 4.25 mm; zone of inhibition at 600 µg/mL [6]: 5.86 mm; zone of inhibition at 900 µg/mL [21]: 7.56 mm; zone of inhibition at 900 µg/mL [24]: 5.36 mm; zone of inhibition at 900 µg/mL [25]: 13.2 mm; zone of inhibition at 900 µg/mL [26]: 11.2 mm; zone of inhibition at 600 µg/mL [27]: 5.25 mm; zone of inhibition at 300 µg/mL [28]: 3.33 mm; zone of inhibition at 1200 µg/mL [29]: 29.8 mm; zone of inhibition at 900 µg/mL [30]: 5.45 mm; zone of inhibition at 600 µg/mL [31]: 7.86 mm; zone of inhibition at 900 µg/mL [32]: 15 mm; zone of inhibition at 900 µg/mL [33]: 7.15 mm; zone of inhibition at 600 µg/mL [34]: 2.09 mm; zone of inhibition at 1200 µg/mL [35]: 33.9 mm; zone of inhibition at 1200 µg/mL [36]: 25.4 mm
O=[N+]([O-])c1ccc(-c2nnc(CN3CCC(n4nc5ccccc5n4)CC3)o2)cc1Cl	4.57	9.56	7.05	2.95	4.82	17.8	12	4.52	8.8	15.2	4.45	4.85	9.86	12.9	7.25	3.46	23.1	3.35	5.89	3.89	zone of inhibition at 600 µg/mL [4]: 4.89 mm; zone of inhibition at 600 µg/mL [6]: 5.62 mm; zone of inhibition at 900 µg/mL [21]: 10.2 mm; zone of inhibition at 900 µg/mL [24]: 7.25 mm; zone of inhibition at 900 µg/mL [25]: 6.25 mm; zone of inhibition at 900 µg/mL [26]: 12.3 mm; zone of inhibition at 600 µg/mL [27]: 6.25 mm; zone of inhibition at 300 µg/mL [28]: 2.87 mm; zone of inhibition at 1200 µg/mL [29]: 23 mm; zone of inhibition at 900 µg/mL [30]: 12.4 mm; zone of inhibition at 600 µg/mL [31]: 5.56 mm; zone of inhibition at 900 µg/mL [32]: 11 mm; zone of inhibition at 900 µg/mL [33]: 9.56 mm; zone of inhibition at 600 µg/mL [34]: 6.28 mm; zone of inhibition at 1200 µg/mL [35]: 33.2 mm; zone of inhibition at 1200 µg/mL [36]: 31.4 mm
COc1cccc(-c2nnc(CN3CCC(n4nc5ccccc5n4)CC3)o2)c1	4.56	8.45	11.3	3.32	3.35	13.9	9.56	4.25	5.86	10.1	3.35	4.36	7.76	9.86	11.2	5.56	17.2	4.47	4.25	3.25	inhibition zone (IZ) [4]: inactive; inhibition zone (IZ) [6]: inactive; inhibition zone (IZ) [21]: inactive; zone of inhibition at 900 µg/mL [24]: 9.26 mm; zone of inhibition at 900 µg/mL [25]: 7.25 mm; inhibition zone (IZ) [26]: inactive; zone of inhibition at 600 µg/mL [27]: 5.01 mm; zone of inhibition at 300 µg/mL [28]: 2.52 mm; zone of inhibition at 1200 µg/mL [29]: 19.2 mm; zone of inhibition at 900 µg/mL [30]: 7.56 mm; zone of inhibition at 600 µg/mL [31]: 5.85 mm; zone of inhibition at 900 µg/mL [32]: 10.2 mm; zone of inhibition at 900 µg/mL [33]: 6.26 mm; zone of inhibition at 600 µg/mL [34]: 3.65 mm; zone of inhibition at 1200 µg/mL [35]: 25.9 mm; zone of inhibition at 1200 µg/mL [36]: 21.3 mm
